The values that follow come from PMC4155923 (AIDS (London, England), 2012).

Read-outs that look alike come from different tables or passages of the source.

In data set [1] the test system is patients expressing HLA risk alleles. To be noted: cited from earlier work.
A further data set concerns CD8+ T cells. To be noted: abacavir hypersensitivity; ref [14]; cited from earlier work.
Data set [2] has as its target T1, sHLA-B*57:01 (Homo sapiens, UniProt P01889). The data set is described as follows: Drug effect on LF9FITC peptide binding to sHLA-B*57:01.
The test system of a further data set is HLA-B*57:01. The class given is cell-based, human. The following applies: abacavir-treated cells.
The target in data set [3] is T1, sHLA-B*57:01. In words: HLA-B*57:01 fluorescence polarization competition peptide-binding assay. The following applies: competition with LF9FITC; for affinity for HLA-B*57:01 (in words): fluorescence polarization, no abacavir. On the technique in general: Polarisation of emitted light reports the rotation of a fluorescent probe.
Data set [4] concerns the target Soluble HLA-B*57:01 (human | human (endogenous in 721.221)). The data set is described as follows: fluorescence polarisation.

For `NC(=O)N1c2ccccc2C=Cc2ccccc21` [carbamazepine], in data set [1] (severe cutaneous adverse reactions, HLA-B*15:02 [4], B*15:11 [5], A*31:01 [6], ref [4]–[6]), the HLA-associated drug reaction entry was “Severe cutaneous adverse reactions associated with class I HLA”.
Take `Oc1ncnc2[nH]ncc12` [allopurinol]: the HLA-associated drug reaction entry in data set [1] (severe cutaneous adverse reactions, HLA-B*58:01, ref [7]) is “Severe cutaneous adverse reactions associated with class I HLA”.
`Nc1nc(NC2CC2)c2ncn([C@H]3C=C[C@@H](CO)C3)c2n1` [Abacavir, abacavir]: in the data set with CD8+ T cells, the “requirements of CD8+ T-cell response” value is “CD8^+ T-cell responses require transporter of antigen presentation (TAP)/tapasin expression, antigen processing and specific amino acids in the F pocket of HLA-B*57:01”. Moreover, the “LF9FITC reference binding signal in competition experiment” value on sHLA-B*57:01 [2] (200 μmol/l abacavir, in presence of competitor peptide HSL or STIR) is given as “expected increase in reference LF9FITC peptide binding signal with abacavir”. Moreover, the “concentration at which the increase in LF9FITC binding starts” value at sHLA-B*57:01 [2] (fluorescence polarization at equilibrium) was 10 µmol/L. In addition, the “tolerance of abacavir in HLA-B*57:01 individuals” value in data set [1] (HLA-B*57:01 individuals, ref (1)) is “Many HLA-B*57:01 individuals are able to tolerate abacavir and not show hypersensitivity”. Also, the HLA-associated drug reaction result in data set [1] (drug hypersensitivity, HLA-B*57:01, ref [1]–[3]) is “linked to HLA-B*57:01”. The “covalent drug-peptide adducts in peptide fractions” value with HLA-B*57:01 is listed as “we have not, as yet, identified covalent drug–peptide adducts in the peptide fractions”.
Consider LSSPVTKSF [LF9], for which, on sHLA-B*57:01 [3], the “affinity for HLA-B*57:01 (in words)” value was “consistent with high-affinity binding”.
Consider `Cc1onc(-c2c(F)cccc2Cl)c1C(=O)N[C@@H]1C(=O)N2[C@@H]1SC(C)(C)[C@@H]2C(=O)O` [flucloxacillin], for which the HLA-associated drug reaction result in data set [1] (liver injury, HLA-B*57:01, ref [8]) is recorded as “causes drug-induced liver injury in patients expressing HLA-B*57:01”.
As to STIRLLTSL, the “affinity for HLA-B*57:01 (in words)” value at sHLA-B*57:01 [3] is “could strongly compete in the HLA-B*57:01 peptide-binding assay (Fig. 4a and b), with logIC50 values consistent with high-affinity binding”. The “effect of abacavir on IC50 / inhibition by competitor peptide” value at sHLA-B*57:01 [3] (presence vs absence of 200 μmol/l abacavir) is recorded as “No significant difference in inhibition”.

B1: LF9 (…) (peptide)
peptide: LSSPVTKSF
Turning to B1, the log IC50 in data set [4] was determined as 2.6.
